This is an account of results in patent publication US12275729B2 (Merck Sharp & Dohme LLC, priority 2017, dated 2025).

One may read the IC50 as the concentration that gives 50% inhibition.

The target in the first assay is IDO1 (Homo sapiens, UniProt P14902). As to the kind of experiment: IDO1 Cellular Assay in HeLa Cells Stimulated with IFNγ. Type of assay: cell-based. The settings on record: about 48 hours, read-out: Hela IC50.
IDO1, sequence (P14902 whole entry): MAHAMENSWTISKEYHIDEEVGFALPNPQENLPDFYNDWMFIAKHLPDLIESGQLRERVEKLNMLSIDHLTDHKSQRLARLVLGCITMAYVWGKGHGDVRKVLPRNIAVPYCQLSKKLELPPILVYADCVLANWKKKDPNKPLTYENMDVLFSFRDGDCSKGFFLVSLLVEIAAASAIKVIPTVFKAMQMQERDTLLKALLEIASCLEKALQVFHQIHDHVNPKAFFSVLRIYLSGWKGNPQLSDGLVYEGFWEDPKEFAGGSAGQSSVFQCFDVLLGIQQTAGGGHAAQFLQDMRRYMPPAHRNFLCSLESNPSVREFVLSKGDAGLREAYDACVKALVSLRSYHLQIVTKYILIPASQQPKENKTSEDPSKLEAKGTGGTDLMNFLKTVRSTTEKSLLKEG
`CC(=O)N1CC(C(=O)N2CCCc3cc([C@H](C)C(=O)Nc4ccc(F)cc4)ccc32)C1` [Example 69, (2S)-2-[1-(1-acetylazetidine-3-carbonyl)-1,2,3,4-tetrahydroquinolin-6-yl]-N-(4-fluorophenyl)propanamide]: the IC50 was found to be 9020 nM.
For `Cc1cc(N2CCCc3nc(C4(NC(=O)c5ccc(F)cc5)CC4)ccc32)ccn1` [Example 243, 4-fluoro-N-{1-[5-(2-methylpyridin-4-yl)-5,6,7,8-tetrahydro-1,5-naphthyridin-2-yl]cyclopropyl}benzamide], the IC50 came out at 14.3 nM.
The same measure, in the same setting: for `C[C@H](C(=O)Nc1ccc(F)cc1)c1ccc2c(c1)CCCN2C(=O)CC(F)(F)F` [Example 91, (2S)-N-(4-fluorophenyl)-2-[1-(3,3,3-trifluoropropanoyl)-1,2,3,4-tetrahydroquinolin-6-yl]propanamide] the value was 105 nM; for `O=C(c1nnc(C(F)(F)F)[nH]1)N1CCCc2cc(C3(C(=O)Nc4ccc(F)cc4)CCC3)ccc21` [Example 110, N-(4-fluorophenyl)-1-{1-[5-(trifluoromethyl)-4H-1,2,4-triazole-3-carbonyl]-1,2,3,4-tetrahydroquinolin-6-yl}cyclobutane-1-carboxamide], 248 nM; for `O=C(c1cccc(Cl)c1)N1CCCc2nc(C3(C(=O)Nc4ccc(F)cc4)COC3)ccc21` [Example 267, 3-(5-(3-chlorobenzoyl)-5,6,7,8-tetrahydro-1,5-naphthyridin-2-yl)-N-(4-fluorophenyl)oxetane-3-carboxamide], 2.2 nM.
Same read-out and setting: for `CC(C(=O)Nc1ccc(F)cc1)c1ccc2c(c1)CCCN2C(=O)C1CCCCO1` (centres unmarked) [Example 37, N-(4-fluorophenyl)-2-[1-(oxane-2-carbonyl)-1,2,3,4-tetrahydroquinolin-6-yl]propanamide] the value was 4.8 nM.
Same read-out and setting: for `CC(C)CC(=O)N1CCCc2cc(C(C)NC(=O)c3ccc(Cl)cc3)ccc21` (single isomer, unassigned) [Example 26, 4-chloro-N-{1-[1-(3-methylbutanoyl)-1,2,3,4-tetrahydroquinolin-6-yl]ethyl}benzamide] the value was 4.3 nM.
Regarding `O=C(NC1(c2ccc3c(n2)CCCN3C(=O)c2cccc(Cl)c2)CC1)c1ccc(F)cc1` [Example 171, N-{1-[5-(3-chlorobenzene-1-carbonyl)-5,6,7,8-tetrahydro-1,5-naphthyridin-2-yl]cyclopropyl}-4-fluorobenzamide], the IC50 came out at 2.3 nM.
Still for that read-out and setting: the result for `CO[C@H]1C[C@H](C(=O)N2CCCc3cc([C@H](C)C(=O)Nc4ccc(F)cc4)ccc32)C1` [Example 86, (2S)-N-(4-fluorophenyl)-2-[1-(trans-3-methoxycyclobutane-1-carbonyl)-1,2,3,4-tetrahydroquinolin-6-yl]propanamide] reads 17.6 nM; that for `CO[C@@H](C)C(=O)N1CCCc2cc([C@H](C)C(=O)Nc3ccc(F)cc3)ccc21` (single isomer, unassigned) [Example 75], 61.8 nM.
On the same count and under the same terms, for `C[C@@H](C(=O)Nc1ccc(F)cn1)c1ccc2c(c1)CCCN2C(=O)C1CC1` (single isomer, unassigned) [Example 60] the value was 124 nM; for `CC(NC(=O)c1ccc(F)cc1)c1ccc2c(c1)CCCN2C(CO)c1cccc(Cl)c1` (single isomer, unassigned) [Example 95], 545 nM; for `O=C(c1cnn(CC(F)F)c1)N1CCCc2cc(C3(C(=O)Nc4ccc(F)cc4)CCC3)ccc21` [Example 114, 1-{1-[1-(2,2-difluoroethyl)-1H-pyrazole-4-carbonyl]-1,2,3,4-tetrahydroquinolin-6-yl}-N-(4-fluorophenyl)cyclobutane-1-carboxamide], 86.1 nM.
Same read-out and setting: for `CC(C(=O)Nc1ccc(F)cc1)c1ccc2c(n1)CCCN2C(=O)c1cccc(S(C)(=O)=O)c1` (centres unmarked) [Example 285, N-(4-fluorophenyl)-2-(5-(3-(methylsulfonyl)benzoyl)-5,6,7,8-tetrahydro-1,5-naphthyridin-2-yl)propanamide] the value was 4000 nM; for `CC(NC(=O)c1ccc(Cl)cc1)c1ccc2c(n1)CCCN2C(=O)C1CC1` (single isomer, unassigned) [Example 126, 4-chloro-N-{1-[5-(cyclopropanecarbonyl)-5,6,7,8-tetrahydro-1,5-naphthyridin-2-yl]ethyl}benzamide], 617 nM; for `Cc1cc(C(=O)N2CCCc3cc(C4(C(=O)Nc5ccc(F)cn5)CCC4)ccc32)ncn1` [Example 107, N-(5-fluoropyridin-2-yl)-1-[1-(6-methylpyrimidine-4-carbonyl)-1,2,3,4-tetrahydroquinolin-6-yl]cyclobutane-1-carboxamide], 12.8 nM.
Consider `O=C(C1CC1)N1CCCc2nc(C3(C(=O)Nc4ccc(F)cn4)CCC3)ccc21` [Example 169, 1-[5-(cyclopropanecarbonyl)-5,6,7,8-tetrahydro-1,5-naphthyridin-2-yl]-N-(5-fluoropyridin-2-yl)cyclobutane-1-carboxamide], for which the IC50 turned out to be 55.7 nM.
Still for that read-out and setting: the result for `Cc1cccc(C(=O)N2CCCc3nc(C(C)NC(=O)c4ccc(F)cc4)ccc32)n1` (centres unmarked) [Example 281, 2-(1-(4-fluorobenzamido)ethyl)-5-(6-methylpicolinoyl)-5,6,7,8-tetrahydro-1,5-naphthyridin-1-ium 2,2,2-trifluoroacetate] reads 3 nM; that for `C[C@@H](NC(=O)c1ccc(Cl)cc1)c1ccc2c(n1)OCCN2C(=O)c1cccc(Cl)c1` (single isomer, unassigned) [Example 255, 4-Chloro-N-(1-(1-(3-chlorobenzoyl)-2,3-dihydro-1H-pyrido[2,3-b][1,4]oxazin-6-yl)ethyl)benzamide], 74.6 nM; that for `CC(C(=O)Nc1ccc(F)cc1)c1ccc2c(n1)CCCN2C(=O)[C@@H]1CCCO1` (single isomer, unassigned) [Example 164], 1.1 nM.
Turning to `CC(C)CC(=O)N1CCCc2cc(CNC(=O)c3ccc(F)c(F)c3)ccc21` [Example 10, 3,4-difluoro-N-{[1-(3-methylbutanoyl)-1,2,3,4-tetrahydroquinolin-6-yl]methyl}benzamide], the IC50 worked out at 161 nM.
Regarding `CC(NC(=O)c1ccc(F)cc1)c1ccc2c(n1)C(F)CCN2C(=O)C1CC1` (single isomer, unassigned) [Example 204, N-(1-(5-(cyclopropanecarbonyl)-8-fluoro-5,6,7,8-tetrahydro-1,5-naphthyridin-2-yl)ethyl)-4-fluorobenzamide], the IC50 amounted to 228 nM.
Regarding `CC(NC(=O)c1ccc(F)cc1)c1ccc2c(n1)C(=O)CCN2C(=O)C1CC1` (centres unmarked) [Example 192, N-(1-(5-(cyclopropanecarbonyl)-8-oxo-5,6,7,8-tetrahydro-1,5-naphthyridin-2-yl)ethyl)-4-fluorobenzamide], the IC50 was 825 nM.
Same read-out and setting: for `Cc1cc(C(=O)N2CCCc3cc(C(C)C(=O)Nc4ccc(F)cc4)ccc32)no1` (centres unmarked) [Example 46, N-(4-fluorophenyl)-2-[1-(5-methyl-1,2-oxazole-3-carbonyl)-1,2,3,4-tetrahydroquinolin-6-yl]propanamide] the value was 3.9 nM; for `Cc1cc(C(=O)NCc2ccc3c(c2)CCCN3C(=O)c2cccc(Cl)c2)on1` [Example 20, N-{[1-(3-chlorobenzene-1-carbonyl)-1,2,3,4-tetrahydroquinolin-6-yl]methyl}-3-methyl-1,2-oxazole-5-carboxamide], 59.6 nM.
In the case of `CC(C)(C(=O)Nc1ccc(F)cc1)c1ccc2c(n1)CCCN2C(=O)C1CC1` [Example 184, 2-[5-(cyclopropanecarbonyl)-5,6,7,8-tetrahydro-1,5-naphthyridin-2-yl]-N-(4-fluorophenyl)-2-methylpropanamide], the IC50 came out at 10.8 nM.
On to `COC(=O)N1CCCc2nc(C3(C(=O)Nc4ccc(Cl)cc4)CCC3)ccc21` [Example 218, methyl 6-{1-[(4-chlorophenyl)carbamoyl]cyclobutyl}-3,4-dihydro-1,5-naphthyridine-1(2H)-carboxylate], for which the IC50 was determined as 5.1 nM.

The same assay, now with this note: read-out: Hela IC50.
Regarding `O=C(Nc1ccc(F)cc1)C1(c2ccc3c(n2)CCCN3c2ccnc(C(F)(F)F)n2)CC2(CC2)C1` [Example 416, N-(4-fluorophenyl)-5-(5-(2-(trifluoromethyl)pyrimidin-4-yl)-5,6,7,8-tetrahydro-1,5-naphthyridin-2-yl)spiro[2.3]hexane-5-carboxamide], the IC50 stood at 0.79 nM.
Still for that read-out and setting: for `CC(NC(=O)c1ccc(F)cc1)c1ccc2c(n1)CCCN2C(=O)OCc1ccn(C)n1` (centres unmarked) [Example 317, (1-methyl-1H-pyrazol-3-yl)methyl 6-(1-(4-fluorobenzamido)ethyl)-3,4-dihydro-1,5-naphthyridine-1(2H)-carboxylate] the value was 21.1 nM; for `CC(NC(=O)c1ccc(F)cc1)c1ccc2c(n1)CCCN2c1cc(C#N)ccn1` (centres unmarked) [Example 378, N-(1-(5-(4-cyanopyridin-2-yl)-5,6,7,8-tetrahydro-1,5-naphthyridin-2-yl)ethyl)-4-fluorobenzamide], 352 nM.
The same measure, in the same setting: the result for `CC(NC(=O)c1ccc(F)cc1)c1ccc2c(n1)CCCN2c1cccc(C(F)(F)F)n1` (centres unmarked) [Example 354, 4-fluoro-N-(1-(5-(6-(trifluoromethyl)pyridin-2-yl)-5,6,7,8-tetrahydro-1,5-naphthyridin-2-yl)ethyl)benzamide] reads 10.5 nM; that for `COc1cc(N2CCCc3nc(C(C)NC(=O)c4ccc(F)cc4)ccc32)ncn1` (centres unmarked) [Example 379, 4-fluoro-N-(1-(5-(6-methoxypyrimidin-4-yl)-5,6,7,8-tetrahydro-1,5-naphthyridin-2-yl)ethyl)benzamide], 13 nM; that for `CC(NC(=O)c1ccc(C#N)cc1)c1ccc2c(n1)CCCN2C(=O)OC1CC1` (centres unmarked) [Example 337, cyclopropyl 6-(1-(4-cyanobenzamido)ethyl)-3,4-dihydro-1,5-naphthyridine-1(2H)-carboxylate], 88.2 nM.
On the same count and under the same terms, for `O=C(OC1CC1)N1CCCc2nc(C3(C(=O)Nc4ccc(Cl)cc4)CCC3)ccc21` [Example 411, cyclopropyl 6-(1-((4-chlorophenyl)carbamoyl)cyclobutyl)-3,4-dihydro-1,5-naphthyridine-1(2H)-carboxylate] the value was 0.73 nM; for `C[C@H](NC(=O)c1ccc(F)cc1)c1ccc2c(n1)CCCN2c1cccc(OC(C)(C)C)n1` [Example 385, (S)-N-(1-(5-(6-(tert-butoxy)pyridin-2-yl)-5,6,7,8-tetrahydro-1,5-naphthyridin-2-yl)ethyl)-4-fluorobenzamide], 968 nM.
